Measured values taken from PubChem BioAssay AID1963975 (Molecular Pharmacology Branch, DTP, NCI, 2024).
pIC50: −log10 of the molar value. Each block holds one compound with its values, some of them ahead of it.

Test system: 624824-186-R-J2-PDC multicell spheroids, viability
Assay: Anticancer human tumor 624824-186-R-J2-PDC patient-derived colon adenocarcinoma cell line growth inhibition [PI3K]
Conditions: for pIC50: curve of first compound; for viability, T/C: stronger effect = lower value
Outline: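 Multi-cell spheroids combine tumor cells with HUVEC and human MSCs, treated with targeted agents alone or with inavolisib, alpelisib, duvelisib or copanlisib. Concentrations fall in half-log steps from at or near clinical Cmax, or from 10 microM where Cmax is unknown; viability read-out.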

[1] = second compound 0.00316 µM, first compound 0.0316 µM
[2] = second compound 0.00316 µM, first compound 0.1 µM
[3] = second compound 0.00316 µM, first compound 0.316 µM
[4] = second compound 0.00316 µM, first compound 1 µM
[5] = second compound 0.00316 µM, first compound 3.16 µM
[6] = second compound 0.00316 µM, first compound 10 µM
[7] = second compound 0.01 µM, first compound 0.0316 µM
[8] = second compound 0.01 µM, first compound 0.1 µM
[9] = second compound 0.01 µM, first compound 0.316 µM
[10] = second compound 0.01 µM, first compound 1 µM
[11] = second compound 0.01 µM, first compound 3.16 µM
[12] = second compound 0.01 µM, first compound 10 µM
[13] = second compound 0.0316 µM, first compound 0.0316 µM
[14] = second compound 0.0316 µM, first compound 0.1 µM
[15] = second compound 0.0316 µM, first compound 0.316 µM
[16] = second compound 0.0316 µM, first compound 1 µM
[17] = second compound 0.0316 µM, first compound 3.16 µM
[18] = second compound 0.0316 µM, first compound 10 µM
[19] = second compound 0.1 µM, first compound 0.0316 µM
[20] = second compound 0.1 µM, first compound 0.1 µM
[21] = second compound 0.1 µM, first compound 0.316 µM
[22] = second compound 0.1 µM, first compound 1 µM
[23] = second compound 0.1 µM, first compound 3.16 µM
[24] = second compound 0.1 µM, first compound 10 µM
[25] = second compound 0.316 µM, first compound 0.0316 µM
[26] = second compound 0.316 µM, first compound 0.1 µM
[27] = second compound 0.316 µM, first compound 0.316 µM
[28] = second compound 0.316 µM, first compound 1 µM
[29] = second compound 0.316 µM, first compound 3.16 µM
[30] = second compound 0.316 µM, first compound 10 µM
[31] = second compound 1 µM, first compound 0.0316 µM
[32] = second compound 1 µM, first compound 0.1 µM
[33] = second compound 1 µM, first compound 0.316 µM
[34] = second compound 1 µM, first compound 1 µM
[35] = second compound 1 µM, first compound 3.16 µM
[36] = second compound 1 µM, first compound 10 µM
[37] = second compound 3.16 µM, first compound 0.0316 µM
[38] = second compound 3.16 µM, first compound 0.1 µM
[39] = second compound 10 µM, first compound 0.0316 µM
[40] = second compound 10 µM, first compound 0.1 µM
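Also: spheroids exposed to agents for 7 days before viability read.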
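For viability, T/C in this document: 100% = DMSO vehicle treated spheroids.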

pIC50 (second compound 0.00316 µM): < 5.00
pIC50 (second compound 0.01 µM): < 5.00
pIC50 (second compound 0.0316 µM): < 5.00
pIC50 (second compound 0.1 µM): < 5.00
pIC50 (second compound 0.316 µM): < 5.00
pIC50 (second compound 1 µM): < 5.00
SMILES: CNC(=O)c1ccc(N2C(=S)N(c3ccc(C#N)c(C(F)(F)F)c3)C(=O)C2(C)C)cc1F + COc1c(OCCCN2CCOCC2)ccc2c3n(c(=NC(=O)c4cnc(N)nc4)nc12)CCN3
viability, T/C [1]: 77.2%
viability, T/C [2]: 74%
viability, T/C [3]: 76.4%
viability, T/C [4]: 91.7%
viability, T/C [5]: 89.6%
viability, T/C [6]: 110%
viability, T/C [7]: 110%
viability, T/C [8]: 103%
viability, T/C [9]: 99.3%
viability, T/C [10]: 94%
viability, T/C [11]: 96.9%
viability, T/C [12]: 99%
viability, T/C [13]: 90.4%
viability, T/C [14]: 81.7%
viability, T/C [15]: 96.6%
viability, T/C [16]: 96.5%
viability, T/C [17]: 78.4%
viability, T/C [18]: 89.7%
viability, T/C [19]: 95.6%
viability, T/C [20]: 71.8%
viability, T/C [21]: 73.4%
viability, T/C [22]: 84%
viability, T/C [23]: 79.9%
viability, T/C [24]: 70.9%
viability, T/C [25]: 62.2%
viability, T/C [26]: 66.3%
viability, T/C [27]: 65%
viability, T/C [28]: 61.5%
viability, T/C [29]: 65.4%
viability, T/C [30]: 65.3%
viability, T/C [31]: 65%
viability, T/C [32]: 61.6%
viability, T/C [33]: 57.2%
viability, T/C [34]: 62.5%
viability, T/C [35]: 63%
viability, T/C [36]: 57.3%

pIC50 (second compound 0.0316 µM): < 7.00
pIC50 (second compound 0.1 µM): < 7.00
pIC50 (second compound 0.316 µM): < 7.00
pIC50 (second compound 1 µM): < 7.00
pIC50 (second compound 3.16 µM): < 7.00
pIC50 (second compound 10 µM): < 7.00
SMILES: Cn1ncnc1[C@H]1c2n[nH]c(=O)c3cc(F)cc(c23)N[C@@H]1c1ccc(F)cc1 + Cc1nc(NC(=O)N2CCCC2C(N)=O)sc1-c1ccnc(C(C)(C)C(F)(F)F)c1
viability, T/C (second compound 0.0316 µM, first compound 0.000316 µM): 89.5%
viability, T/C (second compound 0.0316 µM, first compound 0.001 µM): 79.8%
viability, T/C (second compound 0.0316 µM, first compound 0.00316 µM): 79.5%
viability, T/C (second compound 0.0316 µM, first compound 0.01 µM): 106%
viability, T/C [13]: 89%
viability, T/C [14]: 101%
viability, T/C (second compound 0.1 µM, first compound 0.000316 µM): 91.8%
viability, T/C (second compound 0.1 µM, first compound 0.001 µM): 87.4%
viability, T/C (second compound 0.1 µM, first compound 0.00316 µM): 105%
viability, T/C (second compound 0.1 µM, first compound 0.01 µM): 80.9%
viability, T/C [19]: 70.2%
viability, T/C [20]: 86.4%
viability, T/C (second compound 0.316 µM, first compound 0.000316 µM): 95.4%
viability, T/C (second compound 0.316 µM, first compound 0.001 µM): 92.9%
viability, T/C (second compound 0.316 µM, first compound 0.00316 µM): 101%
viability, T/C (second compound 0.316 µM, first compound 0.01 µM): 88%
viability, T/C [25]: 108%
viability, T/C [26]: 80.4%
viability, T/C (second compound 1 µM, first compound 0.000316 µM): 88.3%
viability, T/C (second compound 1 µM, first compound 0.001 µM): 102%
viability, T/C (second compound 1 µM, first compound 0.00316 µM): 78.1%
viability, T/C (second compound 1 µM, first compound 0.01 µM): 97.1%
viability, T/C [31]: 101%
viability, T/C [32]: 86.3%
viability, T/C (second compound 3.16 µM, first compound 0.000316 µM): 86.8%
viability, T/C (second compound 3.16 µM, first compound 0.001 µM): 78.6%
viability, T/C (second compound 3.16 µM, first compound 0.00316 µM): 76.3%
viability, T/C (second compound 3.16 µM, first compound 0.01 µM): 82.9%
viability, T/C [37]: 92.4%
viability, T/C [38]: 82.1%
viability, T/C (second compound 10 µM, first compound 0.000316 µM): 87.5%
viability, T/C (second compound 10 µM, first compound 0.001 µM): 84.7%
viability, T/C (second compound 10 µM, first compound 0.00316 µM): 80.3%
viability, T/C (second compound 10 µM, first compound 0.01 µM): 71.8%
viability, T/C [39]: 77.3%
viability, T/C [40]: 84.8%

pIC50 (second compound 0.0316 µM): < 5.00
pIC50 (second compound 0.1 µM): 5.01
pIC50 (second compound 0.316 µM): 5.07
pIC50 (second compound 1 µM): 5.10
pIC50 (second compound 3.16 µM): 5.35
pIC50 (second compound 10 µM): 5.52
SMILES: Cn1ncc(Cl)c1-c1cc(C(=O)NC(CN)Cc2cccc(F)c2)sc1Cl (stereo not drawn) + Cc1nc(NC(=O)N2CCCC2C(N)=O)sc1-c1ccnc(C(C)(C)C(F)(F)F)c1
viability, T/C [13]: 58.2%
viability, T/C [14]: 80.2%
viability, T/C [15]: 77.9%
viability, T/C [16]: 82.1%
viability, T/C [17]: 62.6%
viability, T/C [18]: 56.1%
viability, T/C [19]: 78.9%
viability, T/C [20]: 84.3%
viability, T/C [21]: 70.5%
viability, T/C [22]: 75.2%
viability, T/C [23]: 64.9%
viability, T/C [24]: 49.2%
viability, T/C [25]: 88.5%
viability, T/C [26]: 79%
viability, T/C [27]: 87%
viability, T/C [28]: 80%
viability, T/C [29]: 63.5%
viability, T/C [30]: 47.8%
viability, T/C [31]: 70.6%
viability, T/C [32]: 77.8%
viability, T/C [33]: 86.6%
viability, T/C [34]: 74%
viability, T/C [35]: 63.5%
viability, T/C [36]: 46.8%
viability, T/C [37]: 84.1%
viability, T/C [38]: 84.2%
viability, T/C (second compound 3.16 µM, first compound 0.316 µM): 71.1%
viability, T/C (second compound 3.16 µM, first compound 1 µM): 62.8%
viability, T/C (second compound 3.16 µM, first compound 3.16 µM): 62.6%
viability, T/C (second compound 3.16 µM, first compound 10 µM): 34.7%
viability, T/C [39]: 80.7%
viability, T/C [40]: 73.3%
viability, T/C (second compound 10 µM, first compound 0.316 µM): 64%
viability, T/C (second compound 10 µM, first compound 1 µM): 66.8%
viability, T/C (second compound 10 µM, first compound 3.16 µM): 49.1%
viability, T/C (second compound 10 µM, first compound 10 µM): 30.9%

pIC50 (second compound 0.00316 µM): < 5.00
pIC50 (second compound 0.01 µM): < 5.00
pIC50 (second compound 0.0316 µM): < 5.00
pIC50 (second compound 0.1 µM): < 5.00
pIC50 (second compound 0.316 µM): < 5.00
pIC50 (second compound 1 µM): < 5.00
SMILES: C[C@@H](NC(=O)c1ncnc(N)c1Cl)c1ncc(C(=O)Nc2cc(C(F)(F)F)c(Cl)cn2)s1 + CC(Nc1ccc2c(c1)OCCn1cc(N3C(=O)OCC3C(F)F)nc1-2)C(N)=O
viability, T/C [1]: 108%
viability, T/C [2]: 107%
viability, T/C [3]: 73.1%
viability, T/C [4]: 59.5%
viability, T/C [5]: 78%
viability, T/C [6]: 77.9%
viability, T/C [7]: 110%
viability, T/C [8]: 86.4%
viability, T/C [9]: 80.7%
viability, T/C [10]: 72.8%
viability, T/C [11]: 78.8%
viability, T/C [12]: 77.2%
viability, T/C [13]: 92.6%
viability, T/C [14]: 90.5%
viability, T/C [15]: 83%
viability, T/C [16]: 63.5%
viability, T/C [17]: 73.4%
viability, T/C [18]: 78.2%
viability, T/C [19]: 115%
viability, T/C [20]: 99.2%
viability, T/C [21]: 65.7%
viability, T/C [22]: 69.4%
viability, T/C [23]: 77.6%
viability, T/C [24]: 68.7%
viability, T/C [25]: 98%
viability, T/C [26]: 77%
viability, T/C [27]: 68.7%
viability, T/C [28]: 68.5%
viability, T/C [29]: 67.2%
viability, T/C [30]: 56.6%
viability, T/C [31]: 77%
viability, T/C [32]: 93.7%
viability, T/C [33]: 68.4%
viability, T/C [34]: 63.2%
viability, T/C [35]: 55.4%
viability, T/C [36]: 53.1%
